Data: paper PMC11678328, “Phosphine Oxide Indenoquinoline Derivatives: Synthesis and Biological Evaluation as Topoisomerase I Inhibitors and Antiproliferative Agents” (Molecules, 2024)

Assays:
[1] = target: T1, human TOP1 (Homo sapiens, UniProt P11387); experiment: TOP1 supercoiled plasmid DNA relaxation assay; format: biochemical; conditions: for TOP1 Inhibition 30 min: 30 min reaction, compounds at 100 μM, semiquantitative; for TOP1 relaxation activity after preincubation of compound with DNA: 100 μM, compound incubated with DNA for 15 min at 37 °C before TOP1 was added
T1 construct: made in house; host or cells: Saccharomyces cerevisiae TOP1 null strain RS190, plasmid pHT143 (GAL promoter)
T1 sequence (P11387 1-765): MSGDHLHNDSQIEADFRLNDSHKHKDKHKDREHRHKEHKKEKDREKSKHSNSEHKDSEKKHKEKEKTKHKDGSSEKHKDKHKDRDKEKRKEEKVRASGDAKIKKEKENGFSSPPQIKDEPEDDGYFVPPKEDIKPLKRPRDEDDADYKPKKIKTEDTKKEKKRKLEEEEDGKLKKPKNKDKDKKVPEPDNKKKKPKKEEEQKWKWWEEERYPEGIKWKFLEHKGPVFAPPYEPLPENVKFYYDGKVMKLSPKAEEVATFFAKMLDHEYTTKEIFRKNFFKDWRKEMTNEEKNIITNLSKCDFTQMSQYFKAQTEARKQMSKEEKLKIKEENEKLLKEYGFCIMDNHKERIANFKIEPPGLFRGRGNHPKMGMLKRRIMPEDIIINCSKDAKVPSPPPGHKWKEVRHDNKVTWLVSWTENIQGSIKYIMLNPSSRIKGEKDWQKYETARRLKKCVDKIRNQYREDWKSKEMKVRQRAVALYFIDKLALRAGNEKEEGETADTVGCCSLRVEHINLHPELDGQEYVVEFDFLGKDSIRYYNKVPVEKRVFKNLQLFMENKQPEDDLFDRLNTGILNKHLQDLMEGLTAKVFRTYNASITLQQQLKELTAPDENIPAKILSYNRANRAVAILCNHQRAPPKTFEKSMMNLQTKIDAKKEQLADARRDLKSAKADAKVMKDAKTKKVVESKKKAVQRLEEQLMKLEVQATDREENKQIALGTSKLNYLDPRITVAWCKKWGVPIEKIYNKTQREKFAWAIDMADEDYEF

[2] = system: MRC-5, lung fibroblast cells; experiment: CCK-8 cytotoxicity assay, MRC5; format: cell-based, human; conditions: Homo sapiens; MRC5 non-cancerous cells, 48h, CCK-8
Source text: (§1) The cytotoxic effects of the newly synthesized diphenyl(tetrahydro-5H-indeno[2,1-c]quinolin-2-yl)phosphine oxides 8, diphenyl(7H-indeno[2,1-c]quinolin-2-yl)phosphine oxides 9, and diphenyl(7-oxo-7H-indeno[2,1-c]quinolin-2-yl)phosphine oxides 10 derivatives were studied against several human cell lines: A549 (carcinomic human alveolar basal epithelial cell), SKOV3 (human ovarian carcinoma), and HEK293 (human embryonic kidney). Furthermore, in order to analyze the selective cytotoxicity facing exclusively cancerous cell lines, toxicity against a non-cancerous cell line (MRC-5, lung fibroblast cells) was also evaluated (Table 3). The cell counting kit (CCK-8) assay was employed to assess the growth inhibition and cell proliferation inhibitory activities of the compounds, which are described in Table 3 as IC50 values.
(§2) Cells were cultured according to the supplier’s instructions. Cells were seeded in 96-well plates at a density of 1.5–3 × 10^3 cells per well and incubated overnight in 0.1 mL of media supplied with 10% Fetal Bovine Serum (Lonza) in a 5% CO2 incubator at 37 °C. On day 2, drugs were added and the samples were incubated for 48h. After treatment, 10 μL of the cell counting kit-8 was added into each well for an additional 2h incubation at 37 °C. The absorbance of each well was determined by an Automatic Elisa Reader System at 450 nm wavelength (deducting 620 nm). CPT was used as the positive control.

[3] = system: SKOV3 (human ovarian carcinoma); experiment: CCK-8 cytotoxicity assay, SKOV3; format: cell-based; conditions: SK-OV-3, SKOV3 cells, 48h
Source text: as §1, §2

[4] = target: T1, human TOP1; experiment: TOP1 supercoiled plasmid DNA relaxation assay; format: biochemical; conditions: for Persistence of TOP1 inhibition over the time course / TOP1 relaxation activity after preincubation of compound with TOP1: 100 μM; for Persistence of TOP1 inhibition over the time course: in words; for TOP1 Inhibition 1 min: 1 min reaction; for TOP1 Inhibition 1 min / TOP1 Inhibition 3 min / TOP1 Inhibition 5 min: compounds at 100 μM, semiquantitative; for TOP1 Inhibition 3 min: 3 min reaction; for TOP1 Inhibition 5 min: 5 min reaction; for TOP1 relaxation activity after preincubation of compound with TOP1: compound incubated with TOP1 for 15 min at 37 °C, then DNA added
Source text: The effect of the previously prepared compounds as TOP1 inhibitors was studied. A conventional supercoiled plasmid relaxation assay was used to determine if the newly fused tetrahydroindenoquinolines 8, more aromatic indenoquinolines 9, and carbonyl derivatives 10 with phosphine oxide substituents inhibit human TOP1 activity by converting supercoiled plasmid DNA to its relaxed form. In these experiments, compound samples were mixed with the enzyme followed by the addition of a supercoiled plasmid DNA substrate, and incubation continued for increasing time intervals (1 min, 3 min, and 5 min). The reaction was terminated by the addition of SDS. DNA relaxation products were then resolved by 1% agarose electrophoresis gel and visualized by gel red staining.
The yeast Saccaromyces cerevisiae TOP1 null strain RS190, which was used for the expression of recombinant human TOP1, was a kind gift from R. Sternglanz (State University of New York, Stony Brook, NY, USA). Plasmid pHT143, for the expression of recombinant TOP1 under the control of an inducible GAL promoter, was described. The plasmids pHT143 were transformed into the yeast S. cerevisiae strain RS190. The proteins were expressed and purified by affinity chromatography essentially as described. The protein concentrations were estimated from Coomassie blue-stained SDS/polyacrylamide gels by comparison to serial dilutions of bovine serum albumin (BSA).
TOP1 activity was assayed using a DNA relaxation assay by incubating 110 ng/mL of TOP1 with 0.5 µg of negatively supercoiled pUC18 in […] of reaction buffer (20 mM Tris HCl, 0.1 mM Na2EDTA, 10 mM MgCl2, […] acetylated BSA, and 150 mM KCl, pH 7.5). The effect of the synthesized phosphorylated derivatives 8, 9, and 10 on the TOP1 activity was measured by adding different concentrations of the compounds, at different time points, as indicated in the text. The reactions were performed at 37 °C stopped by the addition of 0.5% SDS after the indicated time intervals. The samples were protease-digested and electrophoresed in a horizontal 1% agarose gel in 1xTBE (50 mM Tris, 45 mM boric acid, 1 mM EDTA) at 25V during 18h. The gel was stained with gel red (BIOTIUM, 5 mg/mL), destained with water, and photographed under UV illumination. Since all drugs were dissolved in dimethyl sulfoxide (DMSO), a […] control sample containing the same DMSO concentration as the samples incubated with the drugs was included in all experiments.

[5] = system: A549 (carcinomic human alveolar basal epithelial cell); experiment: CCK-8 cytotoxicity assay, A549; format: cell-based; conditions: Homo sapiens, A549, 48 h, A549 cells, 48h, CCK-8
Source text: as §1, §2

[6] = system: HEK293 (human embryonic kidney); experiment: CCK-8 cytotoxicity assay, HEK293; format: cell-based; conditions: HEK293 cells, 48h
Source text: as §1, §2

| SMILES | TOP1 Inhibition 30 min [1] | Persistence of TOP1 inhibition over the time course [4] | TOP1 Inhibition 1 min [4] | TOP1 Inhibition 3 min [4] | TOP1 Inhibition 5 min [4] | TOP1 relaxation activity after preincubation of compound with DNA [1] | IC50 [2] [µM] | IC50 [3] [µM] | IC50 [5] [µM] | IC50 [6] [µM] | TOP1 relaxation activity after preincubation of compound with TOP1 [4] |
| --- | --- | --- | --- | --- | --- | --- | --- | --- | --- | --- | --- |
| O=P(c1ccccc1)(c1ccccc1)c1ccc2c(c1)C1c3ccccc3CC1C(c1ccccc1)N2 (centres unmarked) [Compound 8a, Diphenyl(6-phenyl-6,6a,7,11b-tetrahydro-5H-indeno[2,1-c]quinolin-2-yl)phosphine oxide] | ++ | more persistent inhibition | ++ | ++ | ++ | – | > 50 | 6.35 ± 1.73 | 40.2 ± 7.13 | – | – |
| O=P(c1ccccc1)(c1ccccc1)c1ccc2c(c1)C1c3ccccc3CC1C(c1ccc(C(F)(F)F)cc1)N2 (centres unmarked) [Compound 8b, Diphenyl(6-(4-(trifluoromethyl)phenyl)-6,6a,7,11b-tetrahydro-5H-indeno[2,1-c]quinolin-2-yl)phosphine oxide] | +++ (strong inhibition) | more persistent inhibition | +++ (strong inhibition) | +++ (strong inhibition) | +++ (strong inhibition) | partially relaxing the DNA | > 50 | > 50 | 25.8 ± 6.98 | > 50 | the enzyme was inactive, not being able to relax the DNA |
| O=P(c1ccccc1)(c1ccccc1)c1ccc2c(c1)C1c3ccccc3CC1C(c1ccc(F)cc1)N2 (centres unmarked) [Compound 8c, Diphenyl(6-(4-fluorophenyl)-6,6a,7,11b-tetrahydro-5H-indeno[2,1-c]quinolin-2-yl)phosphine oxide] | ++ | – | ++ | ++ | ++ | – | 10.7 ± 0.43 | > 50 | 19.9 ± 3.35 | > 50 | – |
| O=P(c1ccccc1)(c1ccccc1)c1ccc2c(c1)C1c3ccccc3CC1C(c1cccc3ccccc13)N2 (centres unmarked) [Compound 8g, Diphenyl(6-(naphthalen-1-yl)-6,6a,7,11b-tetrahydro-5H-indeno[2,1-c]quinolin-2-yl)phosphine oxide] | + (weak inhibition) | – | + (weak inhibition) | + (weak inhibition) | + (weak inhibition) | – | > 50 | > 50 | > 50 | > 50 | – |
| O=[N+]([O-])c1ccc(C2Nc3ccc(P(=O)(c4ccccc4)c4ccccc4)cc3C3c4ccccc4CC23)cc1 (centres unmarked) [Compound 8k, Diphenyl(6-(4-nitrophenyl)-6,6a,7,11b-tetrahydro-5H-indeno[2,1-c]quinolin-2-yl)phosphine oxide] | + (weak inhibition) | more persistent inhibition | + (weak inhibition) | + (weak inhibition) | + (weak inhibition) | – | > 50 | > 50 | > 50 | > 50 | – |

Further lines, with some results ahead:

| TOP1 Inhibition 30 min [1] | Persistence of TOP1 inhibition over the time course [4] | TOP1 Inhibition 1 min [4] | TOP1 Inhibition 3 min [4] | TOP1 Inhibition 5 min [4] | TOP1 relaxation activity after preincubation of compound with DNA [1] | SMILES | IC50 [2] [µM] | IC50 [3] [µM] | IC50 [5] [µM] | IC50 [6] [µM] | TOP1 relaxation activity after preincubation of compound with TOP1 [4] |
| --- | --- | --- | --- | --- | --- | --- | --- | --- | --- | --- | --- |
| +++ (strong inhibition) | – | +++ (strong inhibition) | +++ (strong inhibition) | +++ (strong inhibition) | partially relaxing the DNA | O=P(c1ccccc1)(c1ccccc1)c1ccc2nc(-c3ccc(C(F)(F)F)cc3)c3c(c2c1)-c1ccccc1C3 [Compound 9b, Diphenyl(6-(4-(trifluoromethyl)phenyl)-7H-indeno[2,1-c]quinolin-2-yl)phosphine oxide] | > 50 | > 50 | > 50 | > 50 | the enzyme was inactive, not being able to relax the DNA |
| ++ | – | ++ | ++ | ++ | – | O=P(c1ccccc1)(c1ccccc1)c1ccc2nc(-c3cccc4ccccc34)c3c(c2c1)-c1ccccc1C3 [Compound 9g, Diphenyl(6-(naphthalen-1-yl)-7H-indeno[2,1-c]quinolin-2-yl)phosphine oxide] | > 50 | > 50 | > 50 | > 50 | – |
| ++ | – | ++ | ++ | ++ | – | COc1cccc(-c2nc3ccc(P(=O)(c4ccccc4)c4ccccc4)cc3c3c2Cc2ccccc2-3)c1 [Compound 9i, Diphenyl(6-(3-methoxyphenyl)-7H-indeno[2,1-c]quinolin-2-yl)phosphine oxide] | > 50 | > 50 | > 50 | > 50 | – |
| ++ | – | + (weak inhibition) | ++ | ++ | – | O=C1c2ccccc2-c2c1c(-c1ccccc1)nc1ccc(P(=O)(c3ccccc3)c3ccccc3)cc21 [Compound 10a, Diphenyl(7-oxo-6-phenyl-7H-indeno[2,1-c]quinolin-2-yl)phosphine oxide] | > 50 | > 50 | > 50 | > 50 | – |
| ++ | – | ++ | ++ | ++ | – | O=C1c2ccccc2-c2c1c(-c1ccc(C(F)(F)F)cc1)nc1ccc(P(=O)(c3ccccc3)c3ccccc3)cc21 [Compound 10b, Diphenyl(7-oxo-(6-(4-trifluoromethyl)phenyl)-7H-indeno[2,1-c]quinolin-2-yl)phosphine oxide] | > 50 | > 50 | > 50 | > 50 | – |
